Data taken from paper PMC9518283 (Journal of Enzyme Inhibition and Medicinal Chemistry, 2022).

Tests used:
hMAO-A = target: T1, hMAO-A (Homo sapiens, UniProt P21397); assay: hMAO-A inhibition, kynuramine substrate, HPLC-MS; type: biochemical; conditions: residual enzyme activity; for % of MAO-A activity (1 µM): compound at 1 µM; for % of MAO-A activity (10 µM): compound at 10 µM
T1 construct: purchased Sigma-Aldrich (St. Louis, MO, USA)
T1 sequence (P21397 1-527): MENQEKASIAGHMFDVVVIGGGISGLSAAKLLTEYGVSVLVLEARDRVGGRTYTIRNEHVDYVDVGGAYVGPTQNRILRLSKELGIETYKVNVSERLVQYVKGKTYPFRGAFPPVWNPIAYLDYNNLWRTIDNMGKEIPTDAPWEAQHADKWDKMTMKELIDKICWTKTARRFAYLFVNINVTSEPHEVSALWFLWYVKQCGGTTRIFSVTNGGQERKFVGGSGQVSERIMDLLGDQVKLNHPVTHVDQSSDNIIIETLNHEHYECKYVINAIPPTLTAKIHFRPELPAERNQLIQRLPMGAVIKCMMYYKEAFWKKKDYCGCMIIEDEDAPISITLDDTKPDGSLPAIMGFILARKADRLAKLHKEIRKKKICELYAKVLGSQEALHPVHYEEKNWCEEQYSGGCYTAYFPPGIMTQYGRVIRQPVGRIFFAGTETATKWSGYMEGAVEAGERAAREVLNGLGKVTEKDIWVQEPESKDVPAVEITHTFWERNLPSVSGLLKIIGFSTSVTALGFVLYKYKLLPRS
Procedure: (§1) The hMAO-A and hMAO-B enzymes were purchased from Sigma-Aldrich (St. Louis, MO, USA). […] The mixture was pre-incubated at 37 °C for 5 min and subsequently substrate kynuramine was added to the final concentration of 60 µM in the case of hMAO-A and 30 µM in the case of hMAO-B. The final volume of reaction mixture was 0.1 mL. The whole reaction mixture was incubated at 37 °C for 30 min. The reaction was stopped by the addition of 200 µL acetonitrile/methanol mixture (ratio 1:1) and cooling down to 0 °C. […] Eluents: (A) 0.1% formic acid in water; (B) 0.1% formic acid in acetonitrile.

hMAO-B = target: T2, hMAO-B (Homo sapiens, UniProt P27338); assay: biochemical; conditions: residual enzyme activity; for % of MAO-B activity (1 µM): compound at 1 µM; for % of MAO-B activity (10 µM): compound at 10 µM
T2 construct: purchased Sigma-Aldrich (St. Louis, MO, USA)
T2 sequence (P27338 1-520): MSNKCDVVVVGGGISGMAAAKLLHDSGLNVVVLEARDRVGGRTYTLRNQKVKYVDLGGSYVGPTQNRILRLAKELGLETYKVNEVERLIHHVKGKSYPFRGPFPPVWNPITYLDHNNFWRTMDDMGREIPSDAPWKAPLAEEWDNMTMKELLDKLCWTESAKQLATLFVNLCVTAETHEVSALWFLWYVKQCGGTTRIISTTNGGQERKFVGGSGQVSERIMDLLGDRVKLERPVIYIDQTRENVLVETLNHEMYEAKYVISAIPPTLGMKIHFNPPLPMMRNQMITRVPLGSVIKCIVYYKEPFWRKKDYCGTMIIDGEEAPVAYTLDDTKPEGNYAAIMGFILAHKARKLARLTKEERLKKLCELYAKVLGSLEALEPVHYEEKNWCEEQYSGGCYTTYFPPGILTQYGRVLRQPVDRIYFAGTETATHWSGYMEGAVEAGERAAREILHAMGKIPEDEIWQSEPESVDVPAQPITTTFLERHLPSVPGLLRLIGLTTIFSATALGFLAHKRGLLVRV
Procedure: as §1

[1] = target: human butyrylcholinesterase (hBChE; EC 3.1.1.8) (Homo sapiens, UniProt P06276); assay: biochemical; conditions: mean of at least three experiments; read-out: IC50 hBChE ± STD
Procedure: (§2) For that purpose, Ellman’s colorimetric assay was used[35].
(§3) The catalytic activity of both cholinesterases was determined by standard Ellman’s method adapted for 96-well plates. All tested inhibitors were freshly prepared in 50% DMSO/50% methanol at 10 mM concentration as stock solutions and then diluted in 0.1 M phosphate buffer, pH 7.4. […] The mixture was pre-incubated at 37 °C for 15 min and subsequently substrate (acetylthiocholine iodide or butyrylthiocholine iodide) was added to the final concentration of 1000 μM. The final volume of the reaction was 100 μL. The catalytic activity was evaluated as the amount of product (%) formed by enzyme after 10 min of incubation at 37 °C. The IC50 values from three independent experiments for each inhibitor concentration in triplicate were calculated using non-linear regression curve analysis in Prism version 7 Software (GraphPad Software Inc., San Diego, CA).

[2] = target: human AChE (hAChE; EC 3.1.1.7) (Homo sapiens, UniProt P22303); assay: biochemical; conditions: for IC50: mean of at least three experiments, read-out: IC50 hAChE ± STD; for SI (hBChE/hAChE): ratio IC50(hBChE)/IC50(hAChE)
Procedure: as §2, §3

human butyrylcholinesterase (hBChE; EC 3.1.1.8), sequence (P06276 29-602): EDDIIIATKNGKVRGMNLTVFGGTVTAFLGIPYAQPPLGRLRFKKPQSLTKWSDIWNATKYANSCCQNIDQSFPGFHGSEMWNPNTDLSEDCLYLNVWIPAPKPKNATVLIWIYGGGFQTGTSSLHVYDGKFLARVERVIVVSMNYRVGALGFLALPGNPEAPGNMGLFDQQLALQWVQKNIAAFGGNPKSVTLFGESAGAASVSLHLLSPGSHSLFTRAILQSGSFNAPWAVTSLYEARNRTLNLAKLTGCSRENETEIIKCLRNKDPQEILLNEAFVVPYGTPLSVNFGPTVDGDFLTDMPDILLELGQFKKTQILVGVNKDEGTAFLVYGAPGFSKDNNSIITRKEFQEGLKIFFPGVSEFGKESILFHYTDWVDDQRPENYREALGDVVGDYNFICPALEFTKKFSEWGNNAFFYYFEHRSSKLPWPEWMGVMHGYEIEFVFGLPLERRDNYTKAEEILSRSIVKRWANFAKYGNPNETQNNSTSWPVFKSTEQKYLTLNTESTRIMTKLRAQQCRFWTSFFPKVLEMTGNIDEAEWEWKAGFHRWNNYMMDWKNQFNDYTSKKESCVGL
human AChE (hAChE; EC 3.1.1.7), sequence (P22303 32-614): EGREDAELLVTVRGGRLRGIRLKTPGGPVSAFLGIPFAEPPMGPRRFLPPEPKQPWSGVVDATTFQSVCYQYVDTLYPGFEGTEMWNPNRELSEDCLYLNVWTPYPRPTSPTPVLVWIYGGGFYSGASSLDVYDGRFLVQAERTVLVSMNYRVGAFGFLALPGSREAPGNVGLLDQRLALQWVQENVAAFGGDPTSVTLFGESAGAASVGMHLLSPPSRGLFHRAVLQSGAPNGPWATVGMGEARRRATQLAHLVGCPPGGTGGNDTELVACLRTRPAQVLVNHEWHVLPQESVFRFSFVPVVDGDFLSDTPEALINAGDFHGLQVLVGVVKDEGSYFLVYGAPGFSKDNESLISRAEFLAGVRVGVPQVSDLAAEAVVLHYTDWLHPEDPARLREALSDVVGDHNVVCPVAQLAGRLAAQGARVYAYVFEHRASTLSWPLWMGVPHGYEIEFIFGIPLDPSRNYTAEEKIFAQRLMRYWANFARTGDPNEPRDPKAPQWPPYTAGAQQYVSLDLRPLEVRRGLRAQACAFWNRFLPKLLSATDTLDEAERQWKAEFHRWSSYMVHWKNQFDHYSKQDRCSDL

| SMILES | % of MAO-A activity (1 µM) (hMAO-A) [%] | % of MAO-A activity (10 µM) (hMAO-A) [%] | % of MAO-B activity (1 µM) (hMAO-B) [%] | % of MAO-B activity (10 µM) (hMAO-B) [%] | IC50 [1] [nM] | IC50 [2] [nM] | SI (hBChE/hAChE) [2] |
| --- | --- | --- | --- | --- | --- | --- | --- |
| C=CCN(CC=C)c1c2c(nc3ccccc13)CCCC2.Cl [Compound 1, N,N-Di(prop-2-en-1-yl)-1,2,3,4-tetrahydroacridin-9-amine hydrochloride] | 95 | 85 | 89 | 62 | 716 ± 35 | 493 ± 12 | 1.45 |
| C=CCNc1c2c(nc3ccccc13)CCCC2.Cl [Compound 2, N-(prop-2-en-1-yl)-1,2,3,4-tetrahydroacridin-9-amine hydrochloride] | 78 | 58 | 48 | 72 | 488 ± 19 | 303 ± 4 | 1.61 |
| C=CCNc1c2c(nc3cc(Cl)ccc13)CCCC2.Cl [Compound 3, 6-Chloro-N-(prop-2-en-1-yl)-1,2,3,4-tetrahydroacridin-9-amine hydrochloride] | 76 | 73 | 71 | 64 | 3220 ± 129 | 70 ± 1 |  |
| C=CCN(CC=C)c1c2c(nc3ccc(OC)cc13)CCCC2.Cl [Compound 4, 7-Methoxy-N,N-di(prop-2-en-1-yl)-1,2,3,4-tetrahydroacridin-9-amine hydrochloride] | 103 | 107 | 83 | 61 | 8760 ± 292 | 3690 ± 113 | 2.37 |
| C=CCNc1c2c(nc3ccc(OC)cc13)CCCC2.Cl [Compound 5, 7-Methoxy-N-(prop-2-en-1-yl)-1,2,3,4-tetrahydroacridin-9-amine hydrochloride] | 97 | 62 | 82 | 70 | 12500 ± 387 | 2270 ± 62 | 5.52 |
| C=CCN(CC=C)c1c2c(nc3ccc(Oc4ccccc4)cc13)CCCC2.Cl [Compound 6, 7-Phenoxy-N,N-di(prop-2-en-1-yl)-1,2,3,4-tetrahydroacridin-9-amine hydrochloride] | 76 | 78 | 16 | 4 | 13200 ± 408 | 9540 ± 138 | 1.38 |
| C#CCN(CC#C)c1c2c(nc3ccccc13)CCCC2.Cl [Compound 8, N,N-Di(prop-2-yn-1-yl)-1,2,3,4-tetrahydroacridin-9-amine hydrochloride] | 103 | 111 | 59 | 47 | 937 ± 43 | 186 ± 5 | 5.04 |
| C#CCN(CC#C)c1c2c(nc3cc(Cl)ccc13)CCCC2 [Compound 10] | 92 | 92 | 106 | 141 | 10900 ± 1020 | 105 ± 4 | 103.52 |
| C#CCN(CC#C)c1c2c(nc3ccc(OC)cc13)CCCC2.Cl [Compound 12, 7-Methoxy-N,N-di(prop-2-yn-1-yl)-1,2,3,4-tetrahydroacridin-9-amine hydrochloride] | 123 | 114 | 63 | 45 | 7970 ± 300 | 5120 ± 184 | 1.56 |
| C#CCNc1c2c(nc3ccc(OC)cc13)CCCC2.Cl [Compound 13, 7-Methoxy-N-(prop-2-yn-1-yl)-1,2,3,4-tetrahydroacridin-9-amine hydrochloride] | 96 | 82 | 74 | 62 | 3760 ± 210 | 1360 ± 39 | 2.75 |
| C#CCN(CC#C)c1c2c(nc3ccc(Oc4ccccc4)cc13)CCCC2.Cl [Compound 14, 7-Phenoxy-N,N-di(prop-2-yn-1-yl)-1,2,3,4-tetrahydroacridin-9-amine hydrochloride] | 93 | 47 | 73 | 14 | 12200 ± 713 | 2880 ± 84 | 4.23 |
| C#CCN(CC#C)CCCNc1c2c(nc3cc(Cl)ccc13)CCCC2.Cl.Cl [Compound 22, N'-(6-Chloro-1,2,3,4-tetrahydroacridin-9-yl)-N,N-di(prop-2-yn-1-yl)propane-1,3-diamine dihydrochloride] | 107 | 102 | 87 | 50 | 170 ± 13 | 61 ± 2 | 2.79 |
| C#CCN(CC#C)CCCNc1c2c(nc3ccc(OC)cc13)CCCC2.Cl.Cl [Compound 24, N-(7-Methoxy-1,2,3,4-tetrahydroacridin-9-yl)-N',N'-di(prop-2-yn-1-yl)-propane-1,3-diamine dihydrochloride] | 60 | 70 | 169 | 82 | 1040 ± 60 | 1950 ± 46 | 0.53 |
| C#CCNCCCNc1c2c(nc3ccc(Oc4ccccc4)cc13)CCCC2.Cl.Cl [Compound 26, N-(7-Phenoxy-1,2,3,4-tetrahydroacridin-9-yl)-N'-(prop-2-yn-1-yl)-propane-1,3-diamine dihydrochloride] | 88 | 79 | 14 | 4 | 1060 ± 62 | 1040 ± 40 | 1.02 |
| C=CCNc1ccnc2cc(Cl)ccc12.Cl [Compound 27, 7-Chloro-N-(prop-2-en-1-yl)quinolin-4-amine hydrochloride] | 54 | 19 | 150 | 127 | 66300 ± 2070 | 10700 ± 406 | 6.18 |
| C#CCNc1ccnc2cc(Cl)ccc12.Cl [Compound 28, 7-Chloro-N-(prop-2-yn-1-yl)quinolin-4-amine hydrochloride] | 39 | 31 | 150 | 61 |  | 8720 ± 242 |  |
